Where “and” joins values, the source holds several entries; their conditions need not be identical. Identical values can stand only once.
Experiments:
[1] = test system: nalidixic acid-resistant Salmonella Enterica serovar Typhimurium; test: Wing wash model: Salmonella counts in rinsate of experimentally contaminated broiler wings; format: cell-based
Description: As a non-limiting example, the efficacy of Sx on the reduction of nalidixic acid-resistant Salmonella spp. on experimentally contaminated broiler carcasses (using a wing wash model) was tested. Sx was tested at 100 ppm and 200 ppm, with or without lecithin and was compared with an untreated negative control group and peracetic Acid (PAA) at 200 ppm as a commercial comparator. […] Almost 0.6 to 3.0 log reduction has been observed in previous iterations. During those studies, the effectiveness of Sx was studied at different time intervals and fixed time interval. […] Whereas, based on literature and food safety inspection services (USDA) directive 7120.1, PAA has been recommended with the dose range of 50 ppm to 2000 ppm. Under field conditions, most of the establishments use 200 ppm as a whole carcass rinse. Therefore, in this iteration, Sx was compared with PAA at 200 ppm level. In this study, Sx was tested at 1.25% and 2.5% level which are equivalent to 100 ppm and 200 ppm of propionic acid concentration. Lecithin was added to the Sx solution at the rate of 0.02%. Lecithin is believed to enhance the cell wall penetration of propionic acid and isoamyl hexanoate leading to better antimicrobial activity.
For this study, a WHIRL-PAK® bag containing one pair of chicken wings was the experimental unit. On approximately day 47 of the broilers age, approximately 54 broilers were euthanized by severing the jugular vein after euthanization. The carcass was thoroughly washed using hot water. The feathers were removed using a mechanical plucker. The wings were separated from the whole carcass and preserved in a cooler containing ice. Each treatment group was represented by nine sample bags (replicates) containing one pair of wings. Three sample bags from each treatment group were pooled together and identified as first, second and third set as shown in Table 3.
To start with, eighteen pairs of wings were brought to the hood and sprayed with Salmonella typhimurium (Nalidixic Acid Resistant [NAR]) inoculum at the rate of 10 mL per pair. The carcasses were allowed to dry for 15 minutes. Following drying, eighteen pairs of wings were inserted into WHIRL-PAK bags at the rate of one pair per WHIRL-PAK bag. T1 bags were added with non-medicated, sterilized reverse osmosis (SRO) water at the rate of one liter per bag. T2-T6 bags were added with respective medicated, SRO water at the rate of one liter per bag. All the bags were incubated for 15 mins in a cooler containing ice cubes. After 15 minutes, the carcass in each bag was removed from the SRO water bag and inserted into a fresh WHIRL-PAK bag.
Approximately 100 mL of buffered peptone water was added into each bag and agitated for one minute. […]

[2] = test system: range of target microorganisms; details: both in gas and MIC assays; cited from earlier work

Question: With `CC(=O)OO` [PAA 200 ppm, peracetic Acid] as the compound, how does the “Salmonella count (MPN)” value ([1]; Salmonella count per mL of wing wash rinsate after 15 mins incubation in medicated SRO water, mean of 9 replicates, concentration in label) read?
Answer: 6.51E+05±5.68E+05 cfu/mL and 6.51E+05 cfu/mL

Question: And the “MPN (Actual numbers)” value ([1]; Salmonella count per mL of wing wash rinsate after 15 mins incubation, concentration in label)?
Answer: 650,694

Question: And the “% Reduction” value ([1]; decrease of Salmonella count compared to untreated control, 15 mins incubation, P<0.05)?
Answer: 84% and 84.55%

Question: What about the “Log Reduction” value ([1]; overall reduction of salmonella count compared to untreated control, 15 mins incubation) of the same compound?
Answer: 0.77 Log

Question: With `CC(C)C(=O)O` [isobutyric acid] as the compound, how does the Bioactivity by itself [2] read?
Answer: some limited bioactivity

Reference: patent publication US20240237661A1, “ANTIMICROBIAL SOLUTIONS AND USES THEREOF” (EcoPlanet Environmental LLC, priority 2023, published 2024)
